# Test results as given in patent US4416884A, “Piperazinylbenzoheterocyclic compounds” (Otsuka Pharmaceutical Co., Ltd., priority 1978, dated 1983).
# Where two headings read alike, the source gives them in different places.
# Columns and labels:
# [1] = tested on: Serattia marcescens IFO 12648; experiment: antimicrobial activity, serial dilution method on agar plate; assay type: cell-based
# Experimental: (§1) The antimicrobial activity of the following test compounds on various test organisms listed below was determined by the serial dilution method on agar plate (Heart Infusion agar produced by Difco Co.) (see CHEMOTHERAPY 22, pp. 1126-1128 (1974)), and the minimum inhibitory concentrations (mcg/ml) obtained are shown in Table 1 below.
# (§2) A sample of each test organism was prepared so that the population of the organism was 1×10^8 cells/ml (O.D. 660 mμ=0.07 to 0.16) and 1×10^6 cells/ml (which was obtained by diluting the above 1×10^8 cells/ml preparation).
# Proteus rettgeri NIH 96 = experiment: as above; assay type: cell-based; details: Providencia rettgeri
# Experimental: as §1, §2
# [2] = tested on: Pseudomonas aeruginosa ATCC 10145; experiment: as above; assay type: cell-based
# Experimental: as §1, §2
# Escherichia Coli NIHJ = experiment: as above; assay type: cell-based
# Experimental: as §1, §2
# Shigella Sonnei EW 33 = experiment: as above; assay type: cell-based; details: read-out: Minimum Inhibitory Concentration
# Experimental: as §1, §2
# [3] = tested on: Staphylococcus aureus FDA 209 P; experiment: as above; assay type: cell-based
# Experimental: as §1, §2
# [4] = tested on: Pseudomonas aeruginosa E-2; experiment: as above; assay type: cell-based; details: E2, inoculum 1 × 10^8 cells/ml, read-out: Minimum Inhibitory Concentration
# Experimental: as §1, §2
# Klebsiella pneumoniae = experiment: as above; assay type: cell-based
# Experimental: as §1, §2
# [5] = tested on: Pseudomonas aeruginosa NCTC 10490; experiment: as above; assay type: cell-based; details: NCTC10490, inoculum 1 × 10^8 cells/ml, read-out: Minimum Inhibitory Concentration
# Experimental: as §1, §2
# [6] = tested on: Salmonella typhi 0-901 (NCTC 8393); experiment: as above; assay type: cell-based; details: Salmonella enterica
# Experimental: as §1, §2
# [7] = tested on: Vibrio anguillarum IFO 13266; experiment: antimicrobial activity on bacteria which cause infectious diseases in fish; assay type: cell-based
# Experimental: as §1, §2
# (§3) In the same manner as above, the antimicrobial activity of the following compounds on various test organisms which cause infectious diseases in fish was determined.
# [8] = tested on: Pseudomonas fluorescens IFO 12180; experiment: as above; assay type: cell-based; details: IFO12180, read-out: Minimum Inhibitory Concentration
# Experimental: as §1, §2, §3
# [9] = tested on: Aeromonas salmonicida IFO 12718; experiment: as above; assay type: cell-based
# Experimental: as §1, §2, §3
# [10] = tested on: Aeromonas hydrophila IFO 12981; experiment: as above; assay type: cell-based
# Experimental: as §1, §2, §3
# [11] = tested on: Aeromonas salmonicida IFO 12659; experiment: as above; assay type: cell-based
# Experimental: as §1, §2, §3
# [12] = tested on: Aeromonas hydrophila IFO 12658; experiment: as above; assay type: cell-based
# Experimental: as §1, §2, §3
# [13] = tested on: Pseudomonas fluorescens IFO 12568; experiment: as above; assay type: cell-based
# Experimental: as §1, §2, §3
# [14] = tested on: Vibrio anguillarum IFO 12710; experiment: as above; assay type: cell-based
# Experimental: as §1, §2, §3
# [15] = acute toxicity by intravenous administration in mice; details: mouse, in vivo, i.v., mice not fed for 12 hours
# Experimental: The acute toxicity of the compounds of this invention having the formula (I) was determined by intravenous administration (i.v.) in mice which had not been fed for 12 hours prior to the test. LD50 values (50% lethal dose) obtained are set forth below:
# In the same manner as above, LD50 values were determined for all the other test compounds and the LD50 values obtained were at least 500 mg/kg.
# [16] = tested on: Yersinia enterocolitica 0-3; experiment: antimicrobial activity, serial dilution method on agar plate; assay type: cell-based
# Experimental: as §1, §2
# [17] = tested on: Klebsiella pneumoniae ST-101; experiment: as above; assay type: cell-based
# Experimental: as §1, §2
# [18] = tested on: Escherichia Coli NIHJ JC-2 (IFO 12734); experiment: as above; assay type: cell-based; details: Escherichia coli, read-out: Minimum Inhibitory Concentration
# Experimental: as §1, §2
# [19] = tested on: Bacillus subtilis PCI 219; experiment: as above; assay type: cell-based
# Experimental: as §1, §2
# [20] = tested on: Proteus vulgaris IID OX-19; experiment: as above; assay type: cell-based; details: read-out: Minimum Inhibitory Concentration
# Experimental: as §1, §2
# [21] = tested on: Proteus morganii IID Kono; experiment: as above; assay type: cell-based; details: Morganella morganii
# Experimental: as §1, §2
# [22] = inoculum 1 × 10^8 cells/ml, read-out: Minimum Inhibitory Concentration
# [23] = read-out: Minimum Inhibitory Concentration, inoculum 1 × 10^8 cells/ml
# [24] = read-out: Minimum Inhibitory Concentration, inoculum 1 × 10^6 cells/ml
smiles,measurement,setting,value
"CC1(C)SC2C(NC(=O)C(NC(=O)c3cn4c5c(c(N6CCN(S(C)(=O)=O)CC6)ccc5c3=O)CCC4)c3ccccc3)C(=O)N2C1C(=O)O (centres unmarked) [Compound J, 6-{2-[8-(4-Methanesulfonyl-1-piperazinyl)-6,7-dihydro-1-oxo-1H,5H--benzo[ij]quinolizine-2-carboxamido]-2-phenylacetamido}-3,3-dimethyl-7-oxo-4-thia-1-azabicyclo[3,2,0]-heptane-2-carboxylic acid, reference compound]",MIC,[1]; [22],50 µg/mL
same,MIC,"Proteus rettgeri NIH 96; NIH96, inoculum 1 × 10^8 cells/ml, read-out: Minimum Inhibitory Concentration",12.5 µg/mL
same,MIC,"[2]; ATCC10145, inoculum 1 × 10^8 cells/ml, read-out: Minimum Inhibitory Concentration",12.5 µg/mL
same,MIC,Escherichia Coli NIHJ; [22],3.1 µg/mL
same,MIC,Shigella Sonnei EW 33; inoculum 1 × 10^8 cells/ml,6.3 µg/mL
same,MIC,"[3]; FDA209, inoculum 1 × 10^8 cells/ml, read-out: Minimum Inhibitory Concentration",0.8 µg/mL
same,MIC,[4],25 µg/mL
same,MIC,Klebsiella pneumoniae; [22],6.3 µg/mL
same,MIC,[5],3.1 µg/mL
same,MIC,[6]; [23],3.1 µg/mL
O=C(O)c1cn2c3c(c(N4CCNCC4)ccc3c1=O)CCC2 [B],MIC,"[7]; IFO13266, read-out: Minimum Inhibitory Concentration, inoculum 10^6",0.4 µg/mL
same,MIC,"[7]; IFO13266, read-out: Minimum Inhibitory Concentration, inoculum 10^8",0.8 µg/mL
same,MIC,[8],6.3 µg/mL
same,MIC,"[9]; IFO12718, inoculum 10^6, read-out: Minimum Inhibitory Concentration",0.4 µg/mL
same,MIC,"[9]; IFO12718, inoculum 10^8, read-out: Minimum Inhibitory Concentration",0.8 µg/mL
same,MIC,"[10]; IFO12981, inoculum 10^6, read-out: Minimum Inhibitory Concentration",0.4 µg/mL
same,MIC,"[10]; IFO12981, inoculum 10^8, read-out: Minimum Inhibitory Concentration",0.8 µg/mL
same,MIC,"[11]; IFO12659, inoculum 10^6, read-out: Minimum Inhibitory Concentration",0.8 µg/mL
same,MIC,"[11]; IFO12659, inoculum 10^8, read-out: Minimum Inhibitory Concentration",1.6 µg/mL
same,MIC,"[12]; IFO12658, inoculum 10^6, read-out: Minimum Inhibitory Concentration",0.8 µg/mL
same,MIC,"[12]; IFO12658, inoculum 10^8, read-out: Minimum Inhibitory Concentration",1.6 µg/mL
same,MIC,"[13]; IFO12568, read-out: Minimum Inhibitory Concentration, inoculum 10^6",25 µg/mL
same,MIC,"[13]; IFO12568, read-out: Minimum Inhibitory Concentration, inoculum 10^8",50 µg/mL
same,MIC,"[14]; IFO12710, read-out: Minimum Inhibitory Concentration, inoculum 10^6",3.1 µg/mL
same,MIC,"[14]; IFO12710, read-out: Minimum Inhibitory Concentration, inoculum 10^8",12.5 µg/mL
same,LD50,[15],1100 mg/kg
same,MIC,[1]; [24],3.1 µg/mL
same,MIC,[1]; [23],6.3 µg/mL
same,MIC,"[16]; Yersinia enterocolitica, 03, read-out: Minimum Inhibitory Concentration, inoculum 1 × 10^6 cells/ml",3.1 µg/mL
same,MIC,"[16]; Yersinia enterocolitica, 03, read-out: Minimum Inhibitory Concentration, inoculum 1 × 10^8 cells/ml",12.5 µg/mL
same,MIC,"Proteus rettgeri NIH 96; NIH96, read-out: Minimum Inhibitory Concentration, inoculum 1 × 10^6 cells/ml",1.6 µg/mL
same,MIC,"Proteus rettgeri NIH 96; NIH96, read-out: Minimum Inhibitory Concentration, inoculum 1 × 10^8 cells/ml",1.6 µg/mL
same,MIC,"[2]; ATCC10145, read-out: Minimum Inhibitory Concentration, inoculum 1 × 10^6 cells/ml",6.3 µg/mL
same,MIC,"[2]; ATCC10145, read-out: Minimum Inhibitory Concentration, inoculum 1 × 10^8 cells/ml",12.5 µg/mL
same,MIC,"[17]; ST101, read-out: Minimum Inhibitory Concentration, inoculum 1 × 10^6 cells/ml",1.6 µg/mL
same,MIC,"[17]; ST101, read-out: Minimum Inhibitory Concentration, inoculum 1 × 10^8 cells/ml",1.6 µg/mL
same,MIC,[18],3.1 µg/mL
same,MIC,Escherichia Coli NIHJ; [24],0.8 µg/mL
same,MIC,Escherichia Coli NIHJ; [23],1.6 µg/mL
same,MIC,"[19]; PCI219, read-out: Minimum Inhibitory Concentration, inoculum 1 × 10^6 cells/ml",12.5 µg/mL
same,MIC,"[19]; PCI219, read-out: Minimum Inhibitory Concentration, inoculum 1 × 10^8 cells/ml",12.5 µg/mL
same,MIC,Shigella Sonnei EW 33; inoculum 1 × 10^6 cells/ml,1.6 µg/mL
same,MIC,Shigella Sonnei EW 33; inoculum 1 × 10^8 cells/ml,1.6 µg/mL
same,MIC,"[3]; FDA209, read-out: Minimum Inhibitory Concentration, inoculum 1 × 10^6 cells/ml",12.5 µg/mL
same,MIC,"[3]; FDA209, read-out: Minimum Inhibitory Concentration, inoculum 1 × 10^8 cells/ml",2.5 µg/mL
same,MIC,Klebsiella pneumoniae; [24],1.6 µg/mL
same,MIC,Klebsiella pneumoniae; [23],6.3 µg/mL
same,MIC,"[20]; IIDOX19, inoculum 1 × 10^6 cells/ml",1.6 µg/mL
same,MIC,"[20]; IIDOX19, inoculum 1 × 10^8 cells/ml",12.5 µg/mL
same,MIC,"[6]; inoculum 1 × 10^6 cells/ml, read-out: Minimum Inhibitory Concentration",0.8 µg/mL
same,MIC,[6]; [22],0.8 µg/mL
same,MIC,[21]; [24],6.3 µg/mL
same,MIC,[21]; [23],12.5 µg/mL
